Measured values: article PMC12333940, “A prometabolite strategy inhibits cardiometabolic disease in an ApoE^–/– murine model of atherosclerosis” (JCI Insight, 2025)
Values joined by “and” are separate entries in the source; they are usually repeats but may differ in a detail not shown here. Equal values may be shown once.

Columns and labels:
ApoE^–/– mice on an HFD [1] = test: CD68 immunohistochemistry and Stary plaque severity grading; assay type: in vivo, mouse; set-up: STARY Score Average: scale not given here; conditions: for STARY Score Average: average per mouse, experiments 1 and 2, grades per the 1st table; for CD68+ IHC Quantification CD68 % Lesion / CD68+ IHC Quantification CD68+ (um2) / CD68+ IHC Quantification Intima % Lesion / CD68+ IHC Quantification Intima (um2) / CD68+ IHC Quantification Necrotic Core % Lesion / CD68+ IHC Quantification Necrotic Core (um2): individual mice
Protocol: For 6 weeks, mice were freely administered water, water containing 150 mM SerBut, or water containing an equimolar amount of NaBut. SerBut water was pH adjusted using 10 M NaOH to a final pH of 7.4. […] In concert, mice were fed an HFD with 42% from fat and 0.2% total cholesterol (Envigo, TD-88137) ad libitum. After 6 weeks, mice were euthanized. The lMLNs, ILNs, spleen, heart, and aorta were harvested and processed for flow cytometry analysis ([67]). The liver was harvested and part was homogenized in tissue protein extraction reagent buffer (Invitrogen, 78510) supplemented with protease inhibitor mini tablets (Thermo Fisher Scientific, PIA32955) for Western blotting and qPCR. The remaining liver was fixed with 4% paraformaldehyde and embedded in paraffin for histological analysis.
Frozen aortic root sections were fixed in Zamboni fixative for 10 minutes. After TBS wash, slides were loaded on Leica Bond RX automated stainer. Anti–mouse CD68 antibody (BioLegend, catalog 137001, clone FA-11; 1:4000) was applied to tissue sections for 60 minutes of incubation at room temperature. Following TBS wash, tissue sections were incubated with rabbit anti-rat IgG (Thermo Fisher Scientific, 31219) 30 minutes. The antigen-antibody binding was detected using Polymer-HRP (Leica Biosystems, Bond Polymer Refine Detection kit, DS9800). The slides were coverglassed by autocoverslipper (Tissue-Tek Glas g2). Stary plaque severity grading was done as previously described ([42]). Briefly, each individual mouse was scored if there were at least 2 sections showing all 3 leaflets of the aortic valve that could reasonably be scored. Each leaflet was scored individually per aortic valve and subsequently averaged per section. All sections were averaged per mouse for a final score. Sections were graded blinded. Table 1 explains the scoring scale. Quantitative analysis of plaque features was performed using a classifier in QuPath (v.05.0).

LDL-R = test: Western blot of LDL-R in liver; assay type: in vivo, mouse; conditions: for LDL-R protein levels in liver: 6 weeks; for LDL-R Relative Expression: western Blot quantifiation, individual mice
Source text: SerBut water was pH adjusted using 10 M NaOH to a final pH of 7.4. […] After 6 weeks, mice were euthanized. […] The liver was harvested and part was homogenized in tissue protein extraction reagent buffer (Invitrogen, 78510) supplemented with protease inhibitor mini tablets (Thermo Fisher Scientific, PIA32955) for Western blotting and qPCR.

[2] = LC-MS/MS of free butyrate in solution of fresh and aged SerBut
Protocol: To investigate stability, we repeated the experiment with SerBut in FBS-supplemented complete media stored for 1 month at 37°C (Figure 1B).
(B) LC-MS/MS analysis of free butyrate in solution of aged SerBut (incubated at 37°C in FBS-supplemented media for 1 month) and freshly dissolved SerBut and NaBut. (C) NF-κB activity of RAW Blue reporter cells upon treatment with the indicated concentrations of SerBut or NaBut for 24 hours followed by stimulation with 200 ng/mL LPS for 6 hours. (D–J) RAW 264.7 cells treated for 24 hours with the indicated concentrations of SerBut or NaBut followed by stimulation with 200 ng/mL LPS for 6 hours. (D–E) Mean fluorescence intensity (MFI) of iNOS^+ or CD80^+ RAW 264.7 cells analyzed by flow cytometry. (F–J) Cytokine concentrations in the cell culture supernatant of RAW 264.7 cells. “x” indicates untreated group. In A, n = 3 per group representing technical replicates. In B, n = 3 freshly prepared samples per 2 distinct experiments pooled for aged SerBut and NaBut groups, while fresh the SerBut group represents a single experiment. One sample in the aged SerBut group and 2 samples in the NaBut group were lost due to filtering malfunctions or LC-MS/MS autosampling malfunctions. In C, n = 6 technical replicates. Data represent mean ± SEM. […] In A, 2-way ANOVA was performed.
Samples were prepared and derivatized as described previously ([28]). Stock solutions were prepared in water/acetonitrile (ACN) (1:1 v/v): 3-nitrophenylhydrazine (NPH), and 1-ethyl-3-(3-dimethylaminopropyl)carbodiimide (EDC) (in 1% pyridine). The internal standard, 4-methylvaleric acid, was added. Samples were mixed with NPH and EDC stocks at a 1:1:1 volume ratio. The mixture was heated in a heating block at 60°C for 30 minutes. Samples were filtered through 0.22 μm filters and stored at 4°C before analysis.
Both derivatized butyrate-NPH and 4-methylvaleric-NPH were detected in negative mode. Column: Thermo Fisher Scientific C18 4.6 × 50 mm, 1.8 μm particle size, at room temperature. Mobile phase A: water with 0.1% v/v formic acid. Mobile phase B: ACN with 0.1% v/v formic acid. Injection volume: 5.0 μL. Flow rate: 0.5 mL/min. […] The MS conditions were optimized using pure butyrate-NPH or 4-methylvaleric-NPH at 1 mM. […] The ratio between MRM of butyrate and 4-methylvaleric acid was used to quantify butyrate concentration.

ApoE^–/– mice on an HFD [3] = test: Immunofluorescent staining of the aortic root (CD68, iNOS, DAPI); assay type: in vivo, mouse; set-up: Immunoflourescence Quantification #Cells/Area / Immunoflourescence Quantification #iNOS+/Area: unit not given beside the values; conditions: for Immunoflourescence Quantification #CD68 / Immunoflourescence Quantification #Cells / Immunoflourescence Quantification #Cells/Area / Immunoflourescence Quantification #iNOS+ / Immunoflourescence Quantification #iNOS+/Area / Immunoflourescence Quantification CD68+/Area / Immunoflourescence Quantification CD68+iNOS+ / Immunoflourescence Quantification CD68+iNOS+/Area: aortic root, individual samples
Source text: SerBut water was pH adjusted using 10 M NaOH to a final pH of 7.4. […] After 6 weeks, mice were euthanized. […] The liver was harvested and part was homogenized in tissue protein extraction reagent buffer (Invitrogen, 78510) supplemented with protease inhibitor mini tablets (Thermo Fisher Scientific, PIA32955) for Western blotting and qPCR. […] Aortic root sections were brought to room temperature and rehydrated with PBS and permeabilized with 10% dimethyl sulfoxide (DMSO). […] Sections were washed again in PBS with 0.1% Tween 20 and then PBS and mounted with ProLong Gold Antifade Mountant with DAPI (Invitrogen). Slides were imaged with a DMI8 inverted fluorescence microscope (Leica Microsystems) and analyzed with QuPath (v0.5.0).

## CCCC(=O)[O-].[Na+] [NaBut, sodium butyrate, reference compound]
ApoE^–/– mice on an HFD [1]
  STARY Score Average: 4 and 4.278 and 4.083 and 3.889 and 4.367 and 4.595 and 4.611 and 4.667
  CD68+ IHC Quantification CD68 % Lesion: 65.946 % Lesion and 80.0675 % Lesion and 77.46 % Lesion and 69.3112 % Lesion and 58.965 % Lesion and 57.8207 % Lesion and 65.2988 % Lesion
  CD68+ IHC Quantification CD68+ (um2): 195963 um2 and 152245 um2 and 221322 um2 and 227819 um2 and 178448 um2 and 177016 um2 and 268099 um2
  CD68+ IHC Quantification Intima % Lesion: 12.0227 % Lesion and 7.77 % Lesion and 10.3458 % Lesion and 13.4964 % Lesion and 17.8935 % Lesion and 30.3544 % Lesion and 12.0651 % Lesion
  CD68+ IHC Quantification Intima (um2): 36578.9 um2 and 15233.4 um2 and 30544.5 um2 and 45695.4 um2 and 53110.1 um2 and 102496 um2 and 50318.2 um2
  CD68+ IHC Quantification Necrotic Core % Lesion: 21.7224 % Lesion and 11.9211 % Lesion and 11.8215 % Lesion and 16.7081 % Lesion and 22.5501 % Lesion and 9.461 % Lesion and 22.3112 % Lesion
  CD68+ IHC Quantification Necrotic Core (um2): 64440.8 um2 and 22667.5 um2 and 33872.5 um2 and 54918.5 um2 and 69955.9 um2 and 28166.5 um2 and 89527.4 um2
LDL-R
  LDL-R protein levels in liver: significantly suppressed
  LDL-R Relative Expression: 0.9947 and 1.813 and 1.671 and 2.327 and 1.487 and 1.248 and 0.7546 and 0.5275 and 1.539 and 2.451
[2]; freshly dissolved
  Butyrate Release by LCMS-MS (free butyrate): 2.185 and 1.975 and 1.35 and 1.426
ApoE^–/– mice on an HFD [3]; 6 weeks, compared with water- and SerBut-treated groups
  CD68^+ cells and iNOS^+ cells per unit area atherosclerotic lesion: increased
ApoE^–/– mice on an HFD [3]
  Immunoflourescence Quantification #CD68: 1074 and 944 and 743 and 1249 and 728 and 1069 and 1053 and 1330 and 954 and 511
  Immunoflourescence Quantification #Cells: 1302 and 1139 and 1013 and 1531 and 949 and 1262 and 1685 and 1684 and 1364 and 682
  Immunoflourescence Quantification #Cells/Area: 0.004391 and 0.005279 and 0.00411 and 0.005114 and 0.004088 and 0.003979 and 0.00428 and 0.00408 and 0.005037 and 0.004831
  Immunoflourescence Quantification #iNOS+: 500 and 473 and 401 and 466 and 354 and 445 and 695 and 625 and 264
  Immunoflourescence Quantification #iNOS+/Area: 0.001686 and 0.002192 and 0.001627 and 0.001557 and 0.001525 and 0.001403 and 0.001765 and 0.001514 and 0.00187
  Immunoflourescence Quantification CD68+/Area: 0.003622 and 0.004376 and 0.003015 and 0.004172 and 0.003136 and 0.00337 and 0.002675 and 0.003222 and 0.003523 and 0.003619
  Immunoflourescence Quantification CD68+iNOS+: 445 and 379 and 322 and 434 and 281 and 393 and 535 and 517 and 202
  Immunoflourescence Quantification CD68+iNOS+/Area: 0.001501 and 0.001757 and 0.001307 and 0.00145 and 0.001211 and 0.001239 and 0.001359 and 0.001252 and 0.001431

## CCCC(=O)OC[C@H](N)C(=O)O [SerBut, O-butyryl-L-serine]
ApoE^–/– mice on an HFD [1]; 6 weeks, compared with water-treated mice
  plaque severity score, CD68^+ stained area and necrotic core area: significant reduction
ApoE^–/– mice on an HFD [1]
  STARY Score Average: 4.31 and 4.429 and 3.833 and 3.944 and 4.333 and 4 and 3.75 and 3.583
  CD68+ IHC Quantification CD68 % Lesion: 69.8799 % Lesion and 66.2246 % Lesion and 57.396 % Lesion and 61.0623 % Lesion and 37.3547 % Lesion and 58.9062 % Lesion and 54.5852 % Lesion
  CD68+ IHC Quantification CD68+ (um2): 83533.6 um2 and 151477 um2 and 57839.2 um2 and 114375 um2 and 26376.1 um2 and 132530 um2 and 122451 um2
  CD68+ IHC Quantification Intima % Lesion: 20.6972 % Lesion and 12.9871 % Lesion and 31.9636 % Lesion and 8.967 % Lesion and 42.8946 % Lesion and 25.2201 % Lesion and 37.0252 % Lesion
  CD68+ IHC Quantification Intima (um2): 25307.3 um2 and 13303.3 um2 and 35976.1 um2 and 33683.8 um2 and 30916.8 um2 and 58237.6 um2 and 82003.5 um2
  CD68+ IHC Quantification Necrotic Core % Lesion: 8.949 % Lesion and 20.1213 % Lesion and 8.471 % Lesion and 28.3702 % Lesion and 18.86 % Lesion and 14.738 % Lesion and 7.7245 % Lesion
  CD68+ IHC Quantification Necrotic Core (um2): 10697.9 um2 and 47552.4 um2 and 8399.84 um2 and 53169.3 um2 and 13317 um2 and 32727 um2 and 17678.5 um2
LDL-R
  LDL-R protein levels in liver: significantly suppressed
  LDL-R Relative Expression: 1.543 and 1.468 and 1.422 and 1.743 and 2.24 and 1.846 and 1.092 and 1.104 and 0.9748
[2]; FBS-supplemented complete media, 1 month at 37°C
  relative concentration of free butyrate on storage: did not change
[2]; aged: 37°C in FBS-supplemented media for 1 month, listed as Aged SerBut
  Butyrate Release by LCMS-MS (free butyrate): 0.457 and 0.4771 and 0.4543 and 0.3155 and 0.3079
[2]; at the time of measurement
  share of sample that was free butyrate: approximately 10%
[2]; freshly dissolved
  Butyrate Release by LCMS-MS (free butyrate): 0.483 and 0.4832 and 0.4596
ApoE^–/– mice on an HFD [3]; 6 weeks, compared to NaBut-treated groups
  total numbers of CD68^+ macrophages in plaque: reduced
ApoE^–/– mice on an HFD [3]
  Immunoflourescence Quantification #CD68: 253 and 777 and 160 and 609 and 328 and 484 and 543 and 320 and 469 and 759 and 789 and 546 and 570 and 595 and 155 and 500
  Immunoflourescence Quantification #Cells: 361 and 838 and 219 and 933 and 390 and 980 and 918 and 425 and 532 and 1028 and 894 and 662 and 629 and 763 and 225 and 709
  Immunoflourescence Quantification #Cells/Area: 0.003013 and 0.004253 and 0.004189 and 0.003573 and 0.00395 and 0.004233 and 0.003714 and 0.004358 and 0.004407 and 0.003725 and 0.004412 and 0.003975 and 0.003527 and 0.00449 and 0.003521 and 0.004264
  Immunoflourescence Quantification #iNOS+: 313 and 90 and 377 and 151 and 158 and 199 and 404 and 180 and 226 and 262 and 184 and 96 and 292
  Immunoflourescence Quantification #iNOS+/Area: 0.001588 and 0.001722 and 0.001444 and 0.001529 and 0.00162 and 0.001649 and 0.001464 and 0.0008883 and 0.001357 and 0.001469 and 0.001083 and 0.001502 and 0.001756
  Immunoflourescence Quantification CD68+/Area: 0.002112 and 0.003943 and 0.003061 and 0.002332 and 0.003322 and 0.00209 and 0.002197 and 0.003281 and 0.003885 and 0.00275 and 0.003894 and 0.003278 and 0.003196 and 0.003502 and 0.002425 and 0.003007
  Immunoflourescence Quantification CD68+iNOS+: 308 and 87 and 302 and 146 and 132 and 181 and 347 and 153 and 200 and 252 and 157 and 71 and 253
  Immunoflourescence Quantification CD68+iNOS+/Area: 0.001563 and 0.001664 and 0.001157 and 0.001479 and 0.001354 and 0.001499 and 0.001257 and 0.0007551 and 0.001201 and 0.001413 and 0.000924 and 0.001111 and 0.001521
